One substance from US20090247570A1, “PHARMACEUTICALS” (Pfizer Inc, priority 2006, published 2009) can be followed below.

One assay has as its system CD8 cell count. The experiment in a line: Clinical trial: change from baseline in CD8 cell count (FACS) after 24 weeks. The format is in vivo, human. The note with it: for Mean change in CD8 count: from baseline. The protocol: (§1) (b) were infected with a non R5 tropic (CXCR4 using viral population) as determined by Monogram Bioscience Phenosense™ assay (WO 02/-99383; U.S. Pat. No. 5,837,464), or were of indeterminate tropism phenotype;
(§2) The eligible patients were randomised into three groups based on the drug regimens they received.
(§3) Group 3: optimised background therapy (as above) plus placebo.
(§4) After 24 weeks of treatment, the endpoints (as discussed below) were measured.
(§5) (d) For each patient, the change from baseline in CD4 and CD8 cell count was measured.
(§6) Cell count was measured by fluorescence activated cell sorting (FACS), which is a standard technique.

The subject of a further assay is CD4 cell count. The experiment in a line: Clinical trial: change from baseline in CD4 cell count (FACS) after 24 weeks. The format is in vivo, human. Particulars: for Mean change in CD4 count: from baseline.
Description: as §1, §2, §3
(§7) The mean of these measurements was taken to be the baseline measurement for each patient.
as §4, §5, §6

For assay [1], the system named is HIV-1 (CXCR4 using viral population). Nature of the assay: Clinical trial: HIV-1 viral load after 24 weeks in treatment experienced patients infected with a CXCR4 using viral population. The class given is in vivo. The note with it: for Mean VL reduction: after 24 weeks, change from baseline; for Treatment difference in VL reduction: 97.5% confidence interval printed in next row.
Description: as §1
(c) had been on a stable antiviral regimen for at least 4 weeks prior to randomisation:
(e) (i) had at least three months previous antiretroviral experience with at least one agent from three of the four antiretroviral drug classes: NTRIs, NNRTIs, protease inhibitors and fusion inhibitors (i.e. were triple class experienced); or
(ii) had documented resistance to members of two of the four antiretroviral drug classes (i.e. were dual class resistant).
as §2, §3
These patients were distributed evenly among the 3 patient groups.
as §7, §4
(a) For each patient, the change from baseline in HIV-1 viral load (on a log[base10]scale) was measured.
(b) The percentage of patients with fewer than (i) 400 and (ii) 50 HIV-1 RNA copies\mL.

Setting [2] is: maraviroc both once and twice daily.
[3] abbreviates: once daily maraviroc + optimised regimen.
[4] abbreviates: twice daily maraviroc + optimised regimen.
[5] abbreviates: once daily maraviroc + optimised regimen, 24 weeks.
The mark [6] stands for this setting: twice daily maraviroc + optimised regimen, 24 weeks.

For “(N-{(1S)-3-[3-isopropyl-5-methyl-4H-1,2,4-triazole-4-yl]-exo-8-azabicyclo[3.2.1]oct-8-yl}-1-phenylpropyl)-4,4-difluorocyclohexanecarboxamide [maraviroc]”, the “increase in CD8 cell count as compared to the placebo” value in the assay on CD8 cell count (setting [2]) is “clinically meaningful (and statistically significant) increase”. For the same substance, the results for the “Mean CD8 cell change” value in the assay with CD8 cell count (maraviroc once daily + OBT) and in the assay with CD8 cell count (maraviroc twice daily + OBT) were “+384.5 cells/μL” and “+338.8 cells/μL”, respectively. In addition, the “Mean change in CD8 count” value in the assay on CD8 cell count (setting [3]) is “+384.5”; with CD8 cell count (setting [4]), “+338.8”. In addition, the “increase in CD4 cell count as compared to the placebo” value in the assay on CD4 cell count (setting [2]) is recorded as “clinically meaningful (and statistically significant) increase”. Besides, the “mean CD4 change” value is “+59.6 cells/μL” in the assay on CD4 cell count (maraviroc once daily + OBT) and “+62.2 cells/μL” in the assay with CD4 cell count (maraviroc twice daily + OBT). Further, the results for the “Mean change in CD4 count” value in the assay with CD4 cell count (setting [3]) and with CD4 cell count (setting [4]) were “+59.6” and “+62.4”, respectively. Also, the “viral load change from baseline” value in assay [1] (maraviroc once daily and twice daily groups, 24 weeks) is −1.2 log10. For the same substance, the “Mean VL reduction” value in assay [1] (once daily maraviroc 150 mg po (300 mg if OBT without PI or delavirdine) + optimised regimen) is reported as −0.91 log10 copies/mL; in assay [1] (twice daily maraviroc 150 mg po (300 mg if OBT without PI or delavirdine) + optimised regimen), −1.20 log10 copies/mL. Moreover, the “Treatment difference in VL reduction” value in assay [1] (once daily maraviroc + optimised regimen vs placebo + optimised regimen, 24 weeks) is reported as “+0.06 log10 copies/mL”; in assay [1] (twice daily maraviroc + optimised regimen vs placebo + optimised regimen, 24 weeks) it was −0.23 log10 copies/mL. In addition, the “>0.5 log10 VL reduction (percentage of patients)” value in assay [1] (setting [5]) came to 42.1%; in assay [1] (setting [6]), 48.1%. For the same substance, the figures for the “>1 log10 VL reduction (percentage of patients)” value in assay [1] (setting [5]) and in assay [1] (setting [6]) were 31.6% and 44.2%, respectively. Besides, the “VL < 50 counts\mL (percentage of patients)” value in assay [1] (setting [5]) was found to be 21.0%^; in assay [1] (setting [6]), 26.9%. The “VL < 400 counts/mL (percentage of patients)” value in assay [1] (setting [5]) is recorded as 24.6%; in assay [1] (setting [6]), 30.8%.
